Columns and labels:
Plasmodium falciparum [1] = assay: Antimalarial activity against blood stage chloroquine-resistant Plasmodium falciparum Dd2 infected in human erythrocytes assessed as inhibition of parasite growth incubated for 72 hrs by SYBR Green I dye based staining analysis; format: functional, organism-based; conditions: Dd2, Erythrocyte
Plasmodium falciparum [2] = assay: Antimalarial activity against Plasmodium falciparum W2 assessed as inhibition of parasite growth; format: functional, organism-based
[3] = Selectivity index, ratio of MTD for cytotoxicity against human HaCaT cells to EC50 for antimalarial activity against blood stage chloroquine-resistant Plasmodium falciparum Dd2 infected in human erythrocytes; format: toxicity, cell-based; conditions: read-out: Selectivity Index
[4] = Selectivity index, ratio of IC50 for cytotoxicity against human KB cells to EC50 for antiplasmodial activity against Plasmodium falciparum W2; format: toxicity, cell-based; conditions: read-out: Selectivity Index

SMILES | EC50 (Plasmodium falciparum [1]) | other results
[C-]#[N+]c1ccc(CCc2cccc([N+]#[C-])c2)cc1 | 2.75 µM | 
[C-]#[N+]c1ccccc1/C=C/c1cccnc1 | 13 µM | 
[C-]#[N+]c1ccc(/C=C/c2cc(OC)cc(OC)c2)cc1 | 1.62 µM | 
[C-]#[N+][C@@H]1[C@H](C(C)C)CC[C@@H](C)[C@@]12C=C(C)CC2 [AXISONITRILE 3] |  | EC50 (Plasmodium falciparum [2]): 0.071 µM
[C-]#[N+]c1ccccc1/C=C/c1cccc(F)c1 | 12.4 µM | 
[C-]#[N+]c1ccccc1/C=C(\CCCC)c1ccccc1 | 5.25 µM | 
[C-]#[N+]c1cccc(/C=C/c2cccnc2)c1 | 0.69 µM | 
CC1=C[C@]2(CC1)[C@H](C)CC[C@@H](C(C)C)[C@H]2N=C=S |  | EC50 (Plasmodium falciparum [2]): 11.8 µM
[C-]#[N+]c1ccc(/C=C/c2ccccc2)cc1 | 2.77 µM | 
CC/C(=C\c1ccccc1)c1ccccc1 | > 100 µM | 
[C-]#[N+]c1ccc(/C=C/c2ccc([N+]#[C-])cc2)cc1 | 0.027 µM | selectivity ratio [3]: 4740
[C-]#[N+]c1ccc(/C=C/c2ccc(OC)cc2)cc1 | 2.27 µM | 
[C-]#[N+]c1ccccc1/C=C/c1ccccc1OC | 21.6 µM | 
[C-]#[N+]c1ccccc1/C=C/c1ccc(F)cc1 | 0.56 µM | 
[C-]#[N+]c1ccccc1C=C(c1ccccc1)c1ccccc1 | 3.62 µM | 
[C-]#[N+]c1ccccc1-c1ccccc1 | 10.8 µM | 
[C-]#[N+]c1ccc(/C=C/c2ccco2)cc1 | 2.66 µM | 
[C-]#[N+][C@]1(C)[C@H](C)C[C@@H]2C[C@H](C)[C@H]3CC[C@](C)([N+]#[C-])[C@H]4CC[C@H]1[C@@H]2[C@H]34 [DIISOCYANOADOCIANE] |  | EC50 (Plasmodium falciparum [2]): 0.013 µM; selectivity ratio [4]: 1000
[C-]#[N+]c1ccccc1/C=C(\CC)c1ccc(F)cc1 | 9.84 µM | 
[C-]#[N+]c1ccc(CCc2ccc([N+]#[C-])cc2)cc1 | 0.22 µM | 
[C-]#[N+]c1ccc(/C=C/c2ccnc3ccccc23)cc1 | 6.98 µM | 
[C-]#[N+]c1ccccc1/C=C(\CC)c1ccc(C(F)(F)F)cc1 | 7.69 µM | 
[C-]#[N+]c1ccc(/C=C/c2ccccc2[N+]#[C-])cc1 | 0.068 µM | 
[C-]#[N+]c1ccccc1-c1ccc2ccccc2c1 | 6.21 µM | 
[C-]#[N+]c1ccc(/C=C/c2ccc(F)cc2)cc1 | 4.69 µM | 

SMILES | EC50 (Plasmodium falciparum [1]) | other results
[C-]#[N+]c1ccccc1/C=C/c1cccc(C(F)(F)F)c1 | 0.27 µM | 
[C-]#[N+]c1cccc(/C=C/c2ccccc2)c1 | 5.32 µM | 
[C-]#[N+]c1ccccc1/C=C/c1ccccc1 | 11.5 µM | 
[C-]#[N+]c1ccccc1/C=C(\CC)c1ccccc1 | 10.6 µM | 
[C-]#[N+]c1ccc(/C=C/c2cccc([N+]#[C-])c2)cc1 | 0.266 µM | 
[C-]#[N+]c1cccc(/C=C/c2ccccn2)c1 | 9.73 µM | 
[C-]#[N+]c1ccccc1/C=C/c1ccncc1 | 3.7 µM | 
[C-]#[N+]c1ccccc1/C=C/c1cccc(OC)c1 | 6.45 µM | 
[C-]#[N+]c1ccccc1/C=C/c1ccc(C(F)(F)F)cc1 | 5.8 µM | 
[C-]#[N+]c1ccc(/C=C/c2ccncc2)cc1 | 0.088 µM | selectivity ratio [3]: 1450
[C-]#[N+]c1ccc(CCc2ccccc2[N+]#[C-])cc1 | 0.44 µM | 
[C-]#[N+]c1ccccc1/C=C/c1ccccn1 | 7.53 µM | 
[C-]#[N+]c1ccc(/C=C/c2ccc3ccccc3n2)cc1 | 5.25 µM | 
[C-]#[N+]c1ccc(/C=C/c2cccc(OC)c2)cc1 | 1.01 µM | 
[C-]#[N+]c1ccc(/C=C/c2cccnc2)cc1 | 5.18 µM | 
[C-]#[N+]c1ccc(/C=C/c2ccccn2)cc1 | 10.3 µM | 
[C-]#[N+]c1ccccc1/C=C/c1ccccc1C(F)(F)F | 4.31 µM | 
[C-]#[N+]c1ccccc1/C=C/c1ccc(OC)cc1 | 3.07 µM | 
[C-]#[N+]c1ccc(/C=C/c2ccc(C(F)(F)F)cc2)cc1 | 2.17 µM | 
[C-]#[N+]c1ccccc1/C=C(\CCC)c1ccccc1 | 3.06 µM | 
[C-]#[N+]c1ccccc1/C=C(\CC)c1cccc(C(F)(F)F)c1 | 5.41 µM | 
[C-]#[N+]c1ccc(CCc2ccncc2)cc1 | 0.56 µM | 
[C-]#[N+]c1ccc(/C=C/c2ccc(Cl)c(Cl)c2)cc1 | 3.21 µM | 
[C-]#[N+]c1ccccc1/C=C/c1ccccc1F | 3.68 µM | 
